These results are taken from ChEMBL document CHEMBL5223122, “Discovery and preclinical evaluations of GST-HG131, a novel HBV antigen inhibitor for the treatment of chronic hepatitis B infection” (Bioorg Med Chem Lett, 2022).

The source made the active and inactive calls. The calls are words filed in the database; no cut-off is given here.

The test system of data set [1] is Hepatitis B virus. The data set can be described thus: Antiviral activity against HBV infected in human HepG2.2.15 assessed as reduction on HBsAg level by ELISA. The data set is classed as functional, organism-based. (In an ELISA, binding on a coated surface is turned into a signal by an enzyme label.)
Data set [2] concerns Hepatitis B virus. The data set is described as follows: Antiviral activity against HBV infected in human HepG2.2.15 assessed as HBV DNA reduction by qPCR method. The data set is classed as functional, organism-based. On the technique in general: Quantitative PCR measures a nucleic acid by following its amplification.
Data set [3] is described as follows: Cmax in C57BL/6 mouse at 2 mg/kg, po. Conditions: in vivo. The data set is classed as ADME, organism-based. The arrangement: dose 2 mg/kg, route po.
Data set [4] in a line: Clearance in Sprague-Dawley rat at 1 mg/kg, iv. The data set is classed as ADME, organism-based. The following applies: in vivo.
Data set [5] in a line: Half life in Sprague-Dawley rat at 1 mg/kg, iv. The data set is classed as ADME, organism-based. Conditions: in vivo.
A short description of data set [6]: AUC (0-last) in C57BL/6 mouse at 2 mg/kg, po. The data set is classed as ADME, organism-based. Also on record: dose 2 mg/kg, route po. Conditions: in vivo.
Data set [7] can be described thus: Volume of distribution in steady state in C57BL/6 mouse at 1 mg/kg, iv. Conditions: in vivo, read-out: Vdss. The data set is classed as ADME, organism-based.
Data set [8] is described as follows: Cmax in Sprague-Dawley rat at 2 mg/kg, po. The data set is classed as ADME, organism-based. The arrangement: dose 2 mg/kg, route po. The following applies: in vivo.
The nature of data set [9]: Oral bioavailability in C57BL/6 mouse at 2 mg/kg. The data set is classed as ADME, organism-based. Conditions: in vivo.
Data set [10] is described as follows: Volume of distribution in steady state in Sprague-Dawley rat at 1 mg/kg, iv. The data set is classed as ADME, organism-based. The following applies: in vivo, read-out: Vdss.
Data set [11] is described as follows: Half life in C57BL/6 mouse at 1 mg/kg, iv. The data set is classed as ADME, organism-based. The following applies: in vivo.
A short description of data set [12]: Oral bioavailability in Sprague-Dawley rat at 2 mg/kg. The data set is classed as ADME, organism-based. Conditions: in vivo.
Data set [13] is described as follows: Clearance in C57BL/6 mouse at 1 mg/kg, iv. The data set is classed as ADME, organism-based. The following applies: in vivo.
The nature of data set [14]: AUC (0-last) in Sprague-Dawley rat at 2 mg/kg, po. The data set is classed as ADME, organism-based. The arrangement: dose 2 mg/kg, route po. The following applies: in vivo.
The nature of data set [15]: Toxicity in rat assessed as decrease in normal rectal temperature at 1000 mg/kg, po. The data set is classed as organism-based. The following applies: in vivo.
A short description of data set [16]: Toxicity in rat assessed as mydriasis at 300 to 1000 mg/kg, po. The data set is classed as organism-based. Conditions: in vivo, dose 300-1000 mg/kg.
Data set [17] can be described thus: Toxicity in mouse infected with AAV encapsidated HBV assessed as change in body weight at 10 mg/kg, po QD for 4 weeks. The data set is classed as organism-based. Conditions: in vivo, 672 h.
The nature of data set [18]: Toxicity in rat assessed as mild white myeloid lymphocytopenia of spleen at 1000 mg/kg, po QD for 14 days. The data set is classed as organism-based. The following applies: in vivo, 336 h, time 14 day.
The nature of data set [19]: Toxicity in rat assessed as mild myocardial degeneration of heart at 1000 mg/kg, po QD for 14 days. The data set is classed as organism-based. Conditions: in vivo, 336 h, time 14 day.
Data set [20] has as its system Hepatitis B virus. The data set is described as follows: In vivo antiviral activity against AAV encapsidated HBV infected in mouse assessed as reduction in HBsAg level at 10 mg/kg, po QD for 4 weeks by ELISA. The data set is classed as functional, organism-based.
Data set [21] can be described thus: Toxicity in rat assessed as decrease in normal rectal temperature at 300 mg/kg, po. The data set is classed as organism-based. Conditions: in vivo.
Data set [22] in a line: Toxicity in rat assessed as organ abnormality at 100 to 300 mg/kg, po QD for 14 days. The data set is classed as organism-based. Conditions: in vivo, 336 h, dose 100-300 mg/kg, time 14 day.
The test system of data set [23] is Hepatitis B virus. The data set is described as follows: In vivo antiviral activity against AAV encapsidated HBV infected in mouse assessed as reduction in HBeAg level at 10 mg/kg, po QD for 4 weeks by ELISA. The data set is classed as functional, organism-based.
Data set [24] is described as follows: Toxicity in rat assessed as moderate acute mucosal inflammation of duodenum at 1000 mg/kg, po QD for 14 days. The data set is classed as organism-based. Conditions: in vivo, 336 h, time 14 day.
Data set [25] is described as follows: Toxicity in rat assessed as mild central lobular hepatocyte degeneration of liver at 1000 mg/kg, po QD for 14 days. The following applies: hepatocytes, 336 h, time 14 day. The data set is classed as organism-based.
Data set [26] deals with Hepatitis B virus. The data set is described as follows: In vivo antiviral activity against AAV encapsidated HBV infected in mouse assessed as reduction in HBV DNA at 1 mg/kg, po QD for 4 weeks in presence of (R)-7-(tert-butyl)-2-methoxy-3-(3-methoxypropoxy)-11-oxo-6,7-dihydro-11H-benzo[f]pyrido[1,2-d][1,4]oxazepine-10-carboxylic acid by qPCR method. The data set is classed as functional, organism-based.

For data set [27], the system named is Hepatitis B virus. The data set is described as follows: In vivo antiviral activity against AAV encapsidated HBV infected in mouse assessed as reduction in HBeAg level at 1 mg/kg, po QD for 4 weeks in presence of (R)-7-(tert-butyl)-2-methoxy-3-(3-methoxypropoxy)-11-oxo-6,7-dihydro-11H-benzo[f]pyrido[1,2-d][1,4]oxazepine-10-carboxylic acid by ELISA. The data set is classed as functional, organism-based.

The test system of data set [28] is Hepatitis B virus. The data set is described as follows: In vivo antiviral activity against AAV encapsidated HBV infected in mouse assessed as reduction in HBsAg level at 1 mg/kg, po QD for 4 weeks in presence of (R)-7-(tert-butyl)-2-methoxy-3-(3-methoxypropoxy)-11-oxo-6,7-dihydro-11H-benzo[f]pyrido[1,2-d][1,4]oxazepine-10-carboxylic acid by ELISA. The data set is classed as functional, organism-based.

The test system of data set [29] is Hepatitis B virus. The data set is described as follows: Antiviral activity against HBV infected in human primary hepatocytes assessed as reduction on HBsAg level by ELISA. The data set is classed as functional, organism-based. Conditions: Hepatocyte.
Data set [30] can be described thus: Toxicity in mouse infected with AAV encapsidated HBV assessed as change in body weight at 1 mg/kg, po QD for 4 weeks. The data set is classed as organism-based. Conditions: in vivo, 672 h.
Data set [31] has as its system Hepatitis B virus. The data set is described as follows: Antiviral activity against HBV infected in human primary hepatocytes assessed as HBV DNA reduction by qPCR method. The data set is classed as functional, organism-based. Conditions: Hepatocyte.
Data set [32] relates to Hepatitis B virus. The data set is described as follows: Antiviral activity against HBV infected in human HepG2.2.15 cells assessed as reduction of 3.5 Kb HBV RNA level at 50 nM and incubated for 4 to 48 hrs by Northern blot anlaysis. The following applies: time 4-48 hrs. The data set is classed as functional, organism-based.
The test system of data set [33] is Hepatitis B virus. The data set can be described thus: Antiviral activity against HBV infected in human primary hepatocytes assessed as reduction on HBeAg level by ELISA. Conditions: Hepatocyte. The data set is classed as functional, organism-based.

One may read the EC50 as the midpoint of the concentration-response curve. As for `COCCCOc1cc2c(cc1Cl)-c1cc(=O)c(C(=O)O)cn1[C@H](CC(C)C)CO2`, the concentration for a half-maximal effect (EC50) in the data set with Hepatitis B virus [1] is 128 nM; with Hepatitis B virus [2], 102 nM.
Turning to `COCCCOc1cc2c(cc1Cl)-c1cc(=O)c(C(=O)O)cn1[C@H](C1CC1)CO2`, the figures for the EC50 with Hepatitis B virus [1] and in the data set with Hepatitis B virus [2] were 66.2 nM and 105 nM, respectively.
One may read the Cmax as the highest concentration seen after dosing. Broadly, the clearance is the rate of elimination divided by the concentration. A high value points to efficient removal. One may read the half-life as the time in which the quantity being followed falls by half. Low readings indicate fast loss, high ones slow loss. What is called AUC(0-t) is the area under the concentration-time curve up to a stated or last time point. As a reminder, the bioavailability is dose-corrected exposure relative to a reference, in per cent. The low end stands for little systemic uptake, the high end for much systemic uptake. `COCCCOc1cc2c(cc1C(C)=O)-c1cc(=O)c(C(=O)O)cn1[C@H](C(C)(C)C)CO2`: the Cmax came to 604 nM in data set [3] and 104 nM in [8]. Further, the values for the clearance in [4] and in [13] were 33 mL/min/kg and 81 mL/min/kg, respectively. Also, the EC50 with Hepatitis B virus [1] amounted to 1.3 nM; with Hepatitis B virus [2], 0.5 nM. The half-life in [5] was 0.8 h; in data set [11], 0.6 h. Further, the AUC(0-t) in data set [6] was 0.478 µM·h; in data set [14] it was 0.228 µM·h. Further, the figures for the Vd in data set [7] and in data set [10] were 2.5 L/kg and 1 L/kg, respectively. The bioavailability was determined as 55.3% in data set [9] and 10.4% in [12].
`COCCCOc1cc2c(cc1Cl)-c1cc(=O)c(C(=O)O)cn1[C@H](C(C)(C)C)CO2` showed a Cmax in data set [3] of 203 nM. Also, the results for the EC50 with Hepatitis B virus [1] and with Hepatitis B virus [2] were 0.7 nM and 0.5 nM, respectively. Also, the AUC(0-t) in [6] was 0.193 µM·h. In [7], the Vd came to 4.9 L/kg. This molecule also gave a bioavailability in data set [9] of 18.3%. This molecule also gave a half-life in data set [11] of 6.3 h. In addition, the clearance in data set [13] came out at 58.5 mL/min/kg.
Consider `COCCCOc1cc2c(cc1Cl)-c1cc(=O)c(C(=O)O)cn1[C@H](C(C)C)C2`, for which the figures for the EC50 in the data set on Hepatitis B virus [1] and in the data set with Hepatitis B virus [2] were 0.9 nM and 0.8 nM, respectively.
The like results for `COCCCOc1ccc(-c2cc(=O)c(C(=O)O)cn2-c2ccccc2C)cc1Cl` were, in that order, 230 nM and 140 nM.
The like results for `COCCCOc1cc2c(cc1Cl)-c1cc(=O)c(C(=O)O)cn1[C@H](C1CCC1)CO2` were, in that order, 125 nM and 531 nM.
As to `COCCCOc1cc2c(cc1OC)-c1cc(=O)c(C(=O)O)cn1[C@H](C(C)C)C2`, the Activity entry was “Toxic” in [15]; “Toxic” in data set [16]; “Non-Toxic” in data set [17]; “Toxic” in data set [18]; “Toxic” in data set [19]; “Toxic” in data set [21]. Besides, the Activity result in data set [22] is “Non-Toxic”; in data set [24], “Toxic”; in [25], “Toxic”. Also, the EC50 in the data set with Hepatitis B virus [1] and in the data set on Hepatitis B virus [2] was 0.8 nM throughout. Also, the outcome in the data set on Hepatitis B virus [20] and in the data set on Hepatitis B virus [23] was Active.
In the case of `CC(C)OC(=O)OCOP(=O)(CO[C@H](C)Cn1cnc2c(N)ncnc21)OCOC(=O)OC(C)C`, the outcome in the data set with Hepatitis B virus [26] was Active. For the same molecule, the outcome in the data set with Hepatitis B virus [27] and in the data set on Hepatitis B virus [28] was inactive.
Consider `CC[C@@H]1COc2cc(OCCCOC)c(Cl)cc2-c2cc(=O)c(C(=O)O)cn21`, for which the EC50 stood at 47.2 nM in the data set on Hepatitis B virus [1] and 44.7 nM with Hepatitis B virus [2].
As to `COCCCOc1cc2c(cc1Cl)-c1cc(=O)c(C(=O)O)cn1[C@H](C)CO2`, the EC50 in the data set on Hepatitis B virus [1] was found to be 226 nM; in the data set with Hepatitis B virus [2], 193 nM.
Take `COCCCOc1cc2c(cc1Cl)-c1cc(=O)c(C(=O)O)cn1[C@H](c1ccccc1)CO2`: the EC50 in the data set with Hepatitis B virus [1] and in the data set with Hepatitis B virus [2] was more than 1000 nM throughout.
For the molecule `COCCCOc1cc2c(cc1Cl)-c1cc(=O)c(C(=O)O)cn1[C@H](C(C)C)CO2`, the Cmax in data set [3] was found to be 1310 nM. Moreover, the EC50 in the data set with Hepatitis B virus [1] was found to be 6.6 nM; in the data set with Hepatitis B virus [2], 8.8 nM. Moreover, the AUC(0-t) in data set [6] stood at 1.34 µM·h. Further, the Vd in data set [7] stood at 1.7 L/kg. Also, in [9], the bioavailability came out at 56.3%. Moreover, the half-life in data set [11] was 1.6 h. The molecule further yielded a clearance in data set [13] of 32 mL/min/kg.
For the molecule `C=C1[C@H](CO)[C@@H](O)C[C@@H]1n1cnc2c(=O)[nH]c(N)nc21.O` [ENTECAVIR], the EC50 with Hepatitis B virus [29] is more than 0.05 nM; in the data set with Hepatitis B virus [31], 0.0078 nM; with Hepatitis B virus [33], more than 0.05 nM. Also, the Activity result in data set [30] is recorded as “Non-Toxic”. The result with Hepatitis B virus [32] was inactive.
